Reference: article PMC6349869, “The palladacycle complex AJ-5 induces apoptotic cell death while reducing autophagic flux in rhabdomyosarcoma cells” (Cell Death Discovery, 2019)
pIC50: −log10 of the molar value.

Key:
Type in all cases: cell-based, human
AX-OH-1 cells = experiment: MTT cell viability assay, AX-OH-1; conditions: AX-OH-1 (aRMS), 48 h
Description: (§1) RH30 human aRMS cells (kindly provided by Associate Professor Judith Davie, Southern Illinois University), AX-OH-1 human aRMS and FL-OH-1 human eRMS cells (kindly provided by Professor Stefan Bath, University of Cape Town) were cultured in Roswell Park Memorial Institute Medium (RPMI)-1640 (Sigma Aldrich, Missouri, USA). […] Cell morphology was monitored using an Olympus CKX41 inverted microscope (MSAC Ltd, UK) and imaged with an EVOS™ XL AMEX1000 Core Imaging System (Thermo Fisher Scientific, Massachusetts, USA).
(§2) Cells were seeded in 96-well plates and treated the next day with a range of AJ-5 concentrations (0.1–1.0 μM) or vehicle ([…]) for 48 h. Cell viability was measured using the 3-(4,5-dimethylthiazol-2-yl)-2,5-diphenyl-trazolium bromide (MTT) assay (11465007001; Sigma Aldrich) according to the manufacturer’s instructions. Mean cell viability was calculated as a percentage of the mean vehicle control. At least three independent experiments in quadruplicate were performed from which the half maximal inhibitory concentration (IC50) was determined using GraphPad Prism version 6.0 (GraphPad Software, California, USA). The selectivity index (SI) was determined by dividing the IC50 of a normal cell line by the IC50 of a cancer cell line.

[1] = test system: RMS cells (RH30, AX-OH-1, RD, FL-OH-1); experiment: Scratch motility assay, RMS cells; conditions: 24 h pre-treatment at IC50, all RMS cells tested
Description: Cells were seeded in 6-well plates and treated with IC50 AJ-5 and vehicle for 24 h. Cells were then collected, counted and replated to achieve 100% confluency in a 24-well plate. The following day a sterile 2 µL pipette tip was used to make a vertical scratch in the cell monolayer of each well and the cells treated with 10 µM mitomycin C (M4287; Sigma Aldrich) to inhibit proliferation. Cells were imaged at 0, 3, 6, 9, 12 and 24 h post wound formation and ImageJ v1.50i[58] was used to calculate the area of the scratch. The total areas migrated was determined by subtracting the area for a specific time point from the area measured at 0h.

RH30 cells [2] = experiment: MTT cell viability assay, RH30; conditions: RH30 (aRMS), 48 h
Description: as §1, §2

RH30 cells [3] = experiment: Autophagic flux by western blotting (p62; LC3II with bafilomycin A1), RH30
Description: AJ-5, synthesized as previously described, was dissolved in dimethyl sulfoxide (DMSO) (D8418; Sigma Aldrich) to give a 5 mM AJ-5 stock which was stored at room temperature (RT) and used within 5 days. AJ-5 was diluted in cell culture medium to achieve the desired final concentration and a vehicle control (DMSO) of the same concentration was prepared simultaneously. Cells were treated at a confluency of 60%. For western blot experiments to determine autophagy flux, cells were treated with 200 nM bafilomycin A1 (B1793; Sigma Aldrich) for 2 h post AJ-5 treatment. Doxorubicin (z/26/0167; Teva Pharmaceutical Industries Ltd, Israel) was used as a positive control in Caspase-Glo experiments at a concentration of 0.5 µM.
Cells were lysed at 4 °C in whole-cell lysis buffer (0.125 M Tris-HCl pH 6.8, 4% SDS, 0.2% glycerol, 0.1% β-mercaptoethanol and a pinch of bromophenol blue) and boiled for 10 min. Proteins were resolved by SDS-PAGE (6–15% gels) and transferred to Hybond ECL membranes (Amersham, UK). […] Densitometry readings were obtained using ImageJ v1.50i[58] and protein expression levels were represented as a ratio of protein of interest/p38 loading control normalized to the vehicletreated control sample where appropriate. […]

## CC(C)c1cccc(C(C)C)c1[N+]1=Cc2cccc[c]2[Pd-2]1([Cl])[P+](CC[P+](c1ccccc1)(c1ccccc1)[Pd-2]1([Cl])[c]2ccccc2C=[N+]1c1c(C(C)C)cccc1C(C)C)(c1ccccc1)c1ccccc1 (centres unmarked) [AJ-5]
AX-OH-1 cells
  pIC50: ≥ 6.70
[1]
  Migratory ability (area migrated): reduced the migratory ability
RH30 cells [2]
  pIC50: ≥ 6.70
RH30 cells [3]; RH30, 0.1 µM or IC50, 24 and 48 h
  Autophagic flux judged by p62 levels: appears to reduce autophagic flux
RH30 cells [3]; RH30, IC50 24 h then 200 nM bafilomycin A1 2 h
  LC3II in the presence of bafilomycin A1: decreased levels of LC3II
